Results published in patent US11932624B2, “MDM2 degraders and uses thereof” (Kymera Therapeutics, Inc., priority 2020, dated 2024).

The compounds below were run on RS411 cells (assay: Cell Viability CTG Assay (CellTiter Glo) in RS411 cells). Conditions: Homo sapiens, RS4-11, 24 h, duration 1 day.
Format: cell-based
Description: Example 23. Cell Viability CTG Assay
Day 0: Compounds or DMSO 60 nL were stamped to the cell plate as the platemap. RS411 cells were centrifuged at 800 rpm for 5 min, suspended with culture medium, and counted with Countess (Invitrogen). The cell density was adjusted to the recommend information. 30 μL of cell solution (1000 cells/well) was added to the assay plate as the platemap and 30 uL of media was added to column 2 and column 23 as the platemap. The plate was spun down briefly. The final concentration of the compounds started at 10 μM (3 fold dilution and 11 doses) and final DMSO concentration was 0.2%. The plate was spun down briefly and incubated at 37° C., 5% CO2 for 1-4 days.
30 μL CellTiter Glo reagent was added to each well and the plate was centrifuged at 1000 rpm for 30 sec. The plate was shaken for 1 min and centrifuged at 1000 rpm for 30 sec. The plate was incubated at RT for 10 min to stabilize the luminescent signal and the luminescence was read by EnVision.
The letter codes for IC50 indicate the concentration of compound required to affect 50% of cells: A (<0.05 μM), B (0.05-0.1 μM), C (0.1-0.5 μM), D (0.5-1.0 μM), and E (>1.0 μM).

IC50 [nM] | Structure (SMILES)
< 50 | Cn1c(=O)n(C2CCC(=O)NC2=O)c2cccc(C#CCNC(=O)c3ccc(NC(=O)[C@@H]4NC5(CCCCC5)[C@@]5(C(=O)Nc6cc(Cl)ccc65)[C@H]4c4cccc(Cl)c4F)cc3)c21 (stereo partly drawn) [I-46]
50 to 100 | Cn1c(=O)n(C2CCC(=O)NC2=O)c2cccc(C#C[C@@H]3CN(C(=O)c4ccc(NC(=O)[C@@H]5NC6(CCCCC6)[C@@]6(C(=O)Nc7cc(Cl)ccc76)[C@H]5c5cccc(Cl)c5F)cc4)CCO3)c21 (stereo partly drawn) [I-47]
< 50 | Cn1c(=O)n(C2CCC(=O)NC2=O)c2ccc(C#CCCNC(=O)c3ccc(NC(=O)[C@@H]4NC5(CCCCC5)[C@@]5(C(=O)Nc6cc(Cl)ccc65)[C@H]4c4cccc(Cl)c4F)cc3)cc21 (stereo partly drawn) [I-48]
< 50 | Cn1c(=O)n(C2CCC(=O)NC2=O)c2cccc(CN3CCC(OC4CCN(C(=O)c5ccc(NC(=O)[C@@H]6NC7(CCCCC7)[C@@]7(C(=O)Nc8cc(Cl)ccc87)[C@H]6c6cccc(Cl)c6F)cc5)CC4)CC3)c21 (stereo partly drawn) [I-49]
< 50 | Cn1c(=O)n(C2CCC(=O)NC2=O)c2cccc(CCCC(=O)N3CCN(C(=O)c4ccc(NC(=O)[C@@H]5NC6(CCCCC6)[C@@]6(C(=O)Nc7cc(Cl)ccc76)[C@H]5c5cccc(Cl)c5F)cc4)CC3)c21 (stereo partly drawn) [I-50]
< 50 | Cn1c(=O)n(C2CCC(=O)NC2=O)c2cccc(C#CCCCNC(=O)c3ccc(NC(=O)[C@@H]4NC5(CCCCC5)[C@@]5(C(=O)Nc6cc(Cl)ccc65)[C@H]4c4cccc(Cl)c4F)cc3)c21 (stereo partly drawn) [I-51]
< 50 | CN(CCCOCCCc1cccc2c1n(C)c(=O)n2C1CCC(=O)NC1=O)C(=O)c1ccc(NC(=O)[C@@H]2NC3(CCCCC3)[C@@]3(C(=O)Nc4cc(Cl)ccc43)[C@H]2c2cccc(Cl)c2F)cc1 (stereo partly drawn) [I-52]
50 to 100 | Cn1c(=O)n(C2CCC(=O)NC2=O)c2cccc(CCC3CC4(CCN(C(=O)c5ccc(NC(=O)[C@@H]6NC7(CCCCC7)[C@@]7(C(=O)Nc8cc(Cl)ccc87)[C@H]6c6cccc(Cl)c6F)cc5)CC4)C3)c21 (stereo partly drawn) [I-53]
50 to 100 | Cn1c(=O)n(C2CCC(=O)NC2=O)c2cccc(N3CCC4(CCN(C(=O)c5ccc(NC(=O)[C@@H]6NC7(CCCCC7)[C@@]7(C(=O)Nc8cc(Cl)ccc87)[C@H]6c6cccc(Cl)c6F)cc5)CC4)CC3)c21 (stereo partly drawn) [I-55]
< 50 | CN(C[C@@H]1CN(CC#Cc2ccc3c(c2)n(C)c(=O)n3C2CCC(=O)NC2=O)CCO1)C(=O)c1ccc(NC(=O)[C@@H]2NC3(CCCCC3)[C@@]3(C(=O)Nc4cc(Cl)ccc43)[C@H]2c2cccc(Cl)c2F)cc1 (stereo partly drawn) [I-56]
< 50 | Cn1c(=O)n(C2CCC(=O)NC2=O)c2cccc(C3CCN(C(=O)c4ccc(NC(=O)[C@@H]5NC6(CCCCC6)[C@@]6(C(=O)Nc7cc(Cl)ccc76)[C@H]5c5cccc(Cl)c5F)cc4)CC3)c21 (stereo partly drawn) [I-58]
< 50 | Cn1c(=O)n(C2CCC(=O)NC2=O)c2cccc(NCC3CC4(C3)CN(C(=O)c3ccc(NC(=O)[C@@H]5NC6(CCCCC6)[C@@]6(C(=O)Nc7cc(Cl)ccc76)[C@H]5c5cccc(Cl)c5F)cc3)C4)c21 (stereo partly drawn) [I-59]
< 50 | Cn1c(=O)n(C2CCC(=O)NC2=O)c2cccc(C#CCN3CCC4(CC3)CN(C(=O)c3ccc(NC(=O)[C@@H]5NC6(CCCCC6)[C@@]6(C(=O)Nc7cc(Cl)ccc76)[C@H]5c5cccc(Cl)c5F)cc3)C4)c21 (stereo partly drawn) [I-60]
< 50 | Cn1c(=O)n(C2CCC(=O)NC2=O)c2cccc(CCN3CC4(CCN(C(=O)c5ccc(NC(=O)[C@@H]6NC7(CCCCC7)[C@@]7(C(=O)Nc8cc(Cl)ccc87)[C@H]6c6cccc(Cl)c6F)cc5)CC4)C3)c21 (stereo partly drawn) [I-61]
50 to 100 | CN(CCC#Cc1cccc2c1n(C)c(=O)n2C1CCC(=O)NC1=O)C(=O)c1ccc(NC(=O)[C@@H]2NC3(CCCCC3)[C@@]3(C(=O)Nc4cc(Cl)ccc43)[C@H]2c2cccc(Cl)c2F)cc1 (stereo partly drawn) [I-62]
< 50 | CN(C(=O)c1ccc(NC(=O)[C@@H]2NC3(CCCCC3)[C@@]3(C(=O)Nc4cc(Cl)ccc43)[C@H]2c2cccc(Cl)c2F)cc1)C1CCN(Cc2cccc3c2n(C)c(=O)n3C2CCC(=O)NC2=O)CC1 (stereo partly drawn) [I-63]
< 50 | Cn1c(=O)n(C2CCC(=O)NC2=O)c2cccc(CCCOC3CCN(C(=O)c4ccc(NC(=O)[C@@H]5NC6(CCCCC6)[C@@]6(C(=O)Nc7cc(Cl)ccc76)[C@H]5c5cccc(Cl)c5F)cc4)CC3)c21 (stereo partly drawn) [I-64]

IC50 [nM] | Structure (SMILES)
< 50 | Cn1c(=O)n(C2CCC(=O)NC2=O)c2cccc(N3CCC4(CC3)CN(C(=O)c3ccc(NC(=O)[C@@H]5NC6(CCCCC6)[C@@]6(C(=O)Nc7cc(Cl)ccc76)[C@H]5c5cccc(Cl)c5F)cc3)C4)c21 (stereo partly drawn) [I-65]
< 50 | CN(CCCCCc1ccc2c(c1)n(C)c(=O)n2C1CCC(=O)NC1=O)C[C@H]1CC[C@H](NC(=O)[C@@H]2NC3(CCC(C)(C)CC3)[C@@]3(C(=O)Nc4cc(Cl)ccc43)[C@H]2c2cccc(Cl)c2F)CC1 (stereo partly drawn) [I-66]
< 50 | Cn1c(=O)n(C2CCC(=O)NC2=O)c2ccc(CCCCCNC(=O)[C@H]3CC[C@H](NC(=O)[C@@H]4NC5(CCCCC5)[C@@]5(C(=O)Nc6cc(Cl)ccc65)[C@H]4c4cccc(Cl)c4F)CC3)cc21 (stereo partly drawn) [I-67, (3′R,4'S,5′R)-6″-chloro-4′-(3-chloro-2-fluorophenyl)-N-((1r,4R)-4-((5-(1-(2,6-dioxopiperidin-3-yl)-3-methyl-2-oxo-2,3-dihydro-1H-benzo[d]imidazol-5-yl)pentyl)carbamoyl)cyclohexyl)-2″-oxodispiro[cyclohexane-1,2′-pyrrolidine-3′,3″-indoline]-5′-carboxamide]
< 50 | Cn1c(=O)n(C2CCC(=O)NC2=O)c2ccc(C#CC3CCN(C[C@H]4CC[C@H](NC(=O)[C@@H]5NC6(CCC(C)(C)CC6)[C@@]6(C(=O)Nc7cc(Cl)ccc76)[C@H]5c5cccc(Cl)c5F)CC4)CC3)cc21 (stereo partly drawn) [I-68]
< 50 | Cn1c(=O)n(C2CCC(=O)NC2=O)c2ccc(C#CC3CCN(C(=O)[C@H]4CC[C@H](NC(=O)[C@@H]5NC6(CCCCC6)[C@@]6(C(=O)Nc7cc(Cl)ccc76)[C@H]5c5cccc(Cl)c5F)CC4)CC3)cc21 (stereo partly drawn) [I-69]
< 50 | Cn1c(=O)n(C2CCC(=O)NC2=O)c2ccc(C#CC3CCN(C[C@H]4CC[C@H](NC(=O)[C@@H]5NC6(CCCCC6)[C@@]6(C(=O)Nc7cc(Cl)ccc76)[C@H]5c5cccc(Cl)c5F)CC4)CC3)cc21 (stereo partly drawn) [I-70]
< 50 | Cn1c(=O)n(C2CCC(=O)NC2=O)c2ccc(C#CC3CCN(C(=O)[C@H]4CC[C@H](NC(=O)[C@@H]5NC6(CCC(C)(C)CC6)[C@@]6(C(=O)Nc7cc(Cl)ccc76)[C@H]5c5cccc(Cl)c5F)CC4)CC3)cc21 (stereo partly drawn) [I-71]
< 50 | Cn1c(=O)n(C2CCC(=O)NC2=O)c2ccc(CCCCCNC(=O)[C@H]3CC[C@H](NC(=O)[C@@H]4NC5(CCC(C)(C)CC5)[C@@]5(C(=O)Nc6cc(Cl)ccc65)[C@H]4c4cccc(Cl)c4F)CC3)cc21 (stereo partly drawn) [I-72]
< 50 | Cn1c(=O)n(C2CCC(=O)NC2=O)c2ccc(CCCCCNC(=O)c3ccc(NC(=O)[C@@H]4NC5(CCC(C)(C)CC5)[C@@]5(C(=O)Nc6cc(Cl)ccc65)[C@H]4c4cccc(Cl)c4F)cc3)cc21 (stereo partly drawn) [I-74, (3′R,4'S,5′R)-6″-chloro-4′-(3-chloro-2-fluorophenyl)-N-(4-((5-(1-(2,6-dioxopiperidin-3-yl)-3-methyl-2-oxo-2,3-dihydro-1H-benzo[d]imidazol-5-yl)pentyl)carbamoyl)phenyl)-4,4-dimethyl-2″-oxodispiro[cyclohexane-1,2′-pyrrolidine-3′,3″-indoline]-5′-carboxamide]
< 50 | Cn1c(=O)n(C2CCC(=O)NC2=O)c2ccc(C#CC3CCN(C(=O)C45CCC(NC(=O)[C@@H]6NC7(CCCCC7)[C@@]7(C(=O)Nc8cc(Cl)ccc87)[C@H]6c6cccc(Cl)c6F)(CC4)CC5)CC3)cc21 (stereo partly drawn) [I-75]
100 to 500 | Cn1c(=O)n(C2CCC(=O)NC2=O)c2ccc(C#CC3CCN(C(=O)c4ccc(NC(=O)[C@@H]5NC6(CCC(C)(C)CC6)[C@@]6(C(=O)Nc7cc(Cl)ccc76)[C@H]5c5cccc(Cl)c5F)cc4)CC3)cc21 (stereo partly drawn) [I-76]
< 50 | CN1[C@@H](C(=O)Nc2ccc(CN3CCC(CCc4ccc5c(c4)n(C)c(=O)n5C4CCC(=O)NC4=O)CC3)cc2)[C@H](c2cccc(Cl)c2F)[C@]2(C(=O)Nc3cc(Cl)ccc32)C12CCCCC2 (stereo partly drawn) [I-77]
< 50 | Cn1c(=O)n(C2CCC(=O)NC2=O)c2ccc(CCCCCNC(=O)c3cccc(NC(=O)[C@@H]4NC5(CCCCC5)[C@@]5(C(=O)Nc6cc(Cl)ccc65)[C@H]4c4cccc(Cl)c4F)c3)cc21 (stereo partly drawn) [I-78]
< 50 | Cn1c(=O)n(C2CCC(=O)NC2=O)c2ccc(C#CC3CCN(Cc4ccc(NC(=O)[C@@H]5NC6(CCCCC6)[C@@]6(C(=O)Nc7cc(Cl)ccc76)[C@H]5c5cccc(Cl)c5F)cc4)CC3)cc21 (stereo partly drawn) [I-79]
< 50 | CN1[C@@H](C(=O)Nc2ccc(C(=O)N3CCC(C#Cc4ccc5c(c4)n(C)c(=O)n5C4CCC(=O)NC4=O)CC3)cc2)[C@H](c2cccc(Cl)c2F)[C@]2(C(=O)Nc3cc(Cl)ccc32)C12CCCCC2 (stereo partly drawn) [I-80]
< 50 | CN1[C@@H](C(=O)Nc2ccc(C(=O)NCCCCCc3ccc4c(c3)n(C)c(=O)n4C3CCC(=O)NC3=O)cc2)[C@H](c2cccc(Cl)c2F)[C@]2(C(=O)Nc3cc(Cl)ccc32)C12CCC(C)(C)CC2 (stereo partly drawn) [I-81]
< 50 | Cn1c(=O)n(C2CCC(=O)NC2=O)c2ccc(C#CCCCNC(=O)[C@H]3CC[C@H](NC(=O)[C@@H]4NC5(CCCCC5)[C@@]5(C(=O)Nc6cc(Cl)ccc65)[C@H]4c4cccc(Cl)c4F)CC3)cc21 (stereo partly drawn) [I-82]

Structure (SMILES) | IC50 [nM]
O=C1CCC(n2c(=O)oc3c(CCCOC4CCN(C(=O)c5ccc(NC(=O)[C@@H]6NC7(CCCCC7)[C@@]7(C(=O)Nc8cc(Cl)ccc87)[C@H]6c6cccc(Cl)c6F)cc5)CC4)cccc32)C(=O)N1 (stereo partly drawn) [I-54] | 50 to 100
O=C1CCC(n2c(=O)oc3cc(CCCOCCOCCNC(=O)c4ccc(NC(=O)[C@@H]5NC6(CCCCC6)[C@@]6(C(=O)Nc7cc(Cl)ccc76)[C@H]5c5cccc(Cl)c5F)cc4)ccc32)C(=O)N1 (stereo partly drawn) [I-57] | < 50
